Source: the NIST ThermoML archive (doi:10.1021/je501141e)
Several values for one entry are separate records, joined by “and”; a condition that tells them apart may be missing. Equal values may be shown once. Numbers after ± are expanded uncertainties.

Assays:
[1] = 101.33 kPa, Liquid; for viscosity: Concentric cylinders viscometry; for speed of sound: Sing-around technique in a fixed-path interferometer; for mass density: Vibrating tube method
[2] = xn = mol fraction of the nth substance listed; settings: 100 kPa, Liquid, Concentric cylinders viscometry, x2 = 0

CC(CC(C)(C)C)CC(C)(C)CC(C)(C)C (configuration not stated) [2,2,4,4,6,8,8-heptamethylnonane]
[1]
Settings | mass density [kg/m3] | speed of sound [m/s] | viscosity
293.15 K | 784.48 ± 0.21 | 1285.8 ± 1.4 | 3.71 ± 0.03 mPa·s
303.15 K | 777.78 ± 0.22 | 1248.6 ± 1.4 | 2.93 ± 0.03 mPa·s
313.15 K | 771.07 ± 0.22 | 1212 ± 1.4 | 2.37 ± 0.03 mPa·s
323.15 K | 764.34 ± 0.22 | 1176.2 ± 1.4 | 1.95 ± 0.02 mPa·s
333.15 K | 757.59 ± 0.22 | 1141 ± 1.4 | 1.64 ± 0.02 mPa·s
343.15 K | 750.83 ± 0.22 | 1106.5 ± 1.4 | 1.39 ± 0.02 mPa·s
353.15 K | 743.9 ± 0.4 | – | 1.19 ± 0.02 mPa·s
363.15 K | 737 ± 0.4 | – | 1.04 ± 0.02 mPa·s
373.15 K | 730.2 ± 0.4 | – | 0.91 ± 0.02 mPa·s and 0.913 ± 0.021 mPa·s

CC(CC(C)(C)C)CC(C)(C)C [2,2,4,6,6-pentamethylheptane]
[1]
Settings | mass density [kg/m3] | speed of sound [m/s] | viscosity
293.15 K | 745.21 ± 0.19 | 1203.7 ± 1.3 | 1.31 ± 0.02 mPa·s
303.15 K | 737.93 ± 0.19 | 1164.9 ± 1.3 | 1.11 ± 0.02 mPa·s
313.15 K | 730.61 ± 0.19 | 1126.7 ± 1.2 | 0.94 ± 0.02 mPa·s and 0.948 ± 0.021 mPa·s
323.15 K | 723.26 ± 0.19 | 1089.3 ± 1.2 | 0.82 ± 0.02 mPa·s
333.15 K | 715.86 ± 0.2 | 1052.6 ± 1.2 | 0.715 ± 0.021 mPa·s and 0.71 ± 0.02 mPa·s
343.15 K | 708.42 ± 0.2 | 1016.5 ± 1.2 | 0.632 ± 0.021 mPa·s and 0.63 ± 0.02 mPa·s
353.15 K | 700.7 ± 0.4 | – | 0.562 ± 0.021 mPa·s and 0.56 ± 0.02 mPa·s
363.15 K | 693.1 ± 0.4 | – | 0.505 ± 0.021 mPa·s and 0.5 ± 0.02 mPa·s
373.15 K | 685.4 ± 0.4 | – | 0.459 ± 0.021 mPa·s and 0.45 ± 0.02 mPa·s

CC(CC(C)(C)C)CC(C)(C)C [2,2,4,6,6-pentamethylheptane] + CC(CC(C)(C)C)CC(C)(C)CC(C)(C)C
[2]
Settings | viscosity [mPa·s]
293.15 K | 1.31 ± 0.02
303.15 K | 1.11 ± 0.02
313.15 K | 0.948 ± 0.021
323.15 K | 0.82 ± 0.021
333.15 K | 0.715 ± 0.021
343.15 K | 0.632 ± 0.021
353.15 K | 0.562 ± 0.021
363.15 K | 0.505 ± 0.021
373.15 K | 0.459 ± 0.021
